Experimental data taken from ChEMBL document CHEMBL5321272 (J Med Chem, 2023).
The source made the active and inactive calls. The calls are words filed in the database; no cut-off is given here.

What was measured:
[1] = tested on: MV4-11; assay: Antitumor activity against human MV4-11 cells xenografted in nu/nu mouse assessed as reduction in tumor weight at 3 mg/kg, po qd for 22 days; assay type: functional, organism-based; conditions: time 22.0 day
[2] = Selectivity ratio of IC50 for PIM1 (unknown origin) to IC50 for FLT3-ITD mutant (unknown origin)
[3] = molecular target: Ribosomal protein S6 kinase beta-1 (Homo sapiens, UniProt P23443); assay: Inhibition of P70S6K (unknown origin) by HTRF assay
[4] = molecular target: Receptor-type tyrosine-protein kinase FLT3 (Homo sapiens) (UniProt P36888); assay: Inhibition of FLT3 in human MV4-11 cells assessed as inhibition of ERK phosphorylation at Tyr204 residue at 20 nM measured after 90 mins by western blot analysis; assay type: cell-based
[5] = Selectivity ratio of IC50 for ALK (unknown origin) to IC50 for FLT3-ITD mutant (unknown origin)
[6] = molecular target: Voltage-gated inwardly rectifying potassium channel KCNH2 (Homo sapiens, UniProt Q12809); assay: Inhibition of hERG expressed in HEK293 cells assessed as inhibition of channel current amplitude by whole cell patch clamp analysis; assay type: toxicity, cell-based
[7] = Selectivity ratio of IC50 for LYN (unknown origin) to IC50 for FLT3-ITD mutant (unknown origin)
[8] = Selectivity ratio of IC50 for MET (unknown origin) to IC50 for FLT3-ITD mutant (unknown origin)
[9] = MRT (infinity) in ICR mouse at 10 mg/kg, po; assay type: ADME, organism-based; conditions: in vivo
[10] = Acute toxicity in ICR mouse assessed as morphological changes in heart at 300 mg/kg, ig and measured for 7 days by Hematoxylin-Eosin staining based analysis; assay type: organism-based; conditions: in vivo, po, 168 h, time 7 day
[11] = Selectivity ratio of IC50 for IGF1R (unknown origin) to IC50 for FLT3-ITD mutant (unknown origin)
[12] = Selectivity ratio of IC50 for CDK2 (unknown origin) to IC50 for FLT3-ITD mutant (unknown origin)
[13] = Acute toxicity in ICR mouse assessed as morphological changes in kidney at 300 mg/kg, ig and measured for 7 days by Hematoxylin-Eosin staining based analysis; assay type: organism-based; conditions: in vivo, po, 168 h, time 7 day
[14] = tested on: JeKo-1; assay: Antiproliferative activity against human JeKo-1 cells assessed as reduction in cell viability incubated for 72 hrs by CellTiter 96 Aqueous One Solution Cell Proliferation Assay; assay type: functional, cell-based; conditions: JeKo-1, 72 h
[15] = Toxicity against nu/nu mouse xenografted with human MV4-11 cells assessed as body weight changes at 1 to 3 mg/kg, po qd for 22 days; assay type: organism-based; conditions: in vivo, 528 h, dose 1-3 mg/kg, time 22 day
[16] = molecular target: hERG (KCNH2) (Homo sapiens, UniProt Q12809); assay: Inhibition of hERG expressed in HEK293 cells at 20 uM by whole cell patch clamp analysis; assay type: toxicity, cell-based; conditions: HEK293 cells expressing hERG
[17] = Selectivity ratio of IC50 for CDK1 (unknown origin) to IC50 for FLT3-ITD mutant (unknown origin)
[18] = Selectivity ratio of IC50 for HCK (unknown origin) to IC50 for FLT3-ITD mutant (unknown origin)
[19] = Selectivity ratio of IC50 for BLK (unknown origin) to IC50 for FLT3-ITD mutant (unknown origin)
[20] = Selectivity ratio of IC50 for AMPK alpha2beta1gamma1 (unknown origin) to IC50 for FLT3-ITD mutant (unknown origin)
[21] = Tmax in ICR mouse at 10 mg/kg, po; assay type: ADME, organism-based; conditions: in vivo
[22] = Half life in ICR mouse at 10 mg/kg, po; assay type: ADME, organism-based; conditions: in vivo
[23] = Selectivity ratio of IC50 for BTK (unknown origin) to IC50 for FLT3-ITD mutant (unknown origin)
[24] = molecular target: AMPK alpha2/beta1/gamma1 (Homo sapiens, UniProt P54619+P54646+Q9Y478); assay: Inhibition of AMPK alpha2beta1gamma1 (unknown origin) by HTRF assay; assay type: protein-complex assay
[25] = tested on: BaF3; assay: Antiproliferative activity against mouse BaF3 cells harboring FLT3 F691L mutant assessed as reduction in cell viability incubated for 72 hrs by CellTiter 96 Aqueous One Solution Cell Proliferation Assay; assay type: functional, cell-based
[26] = molecular target: Casein kinase I isoform alpha (Homo sapiens, UniProt P48729); assay: Inhibition of CK1 alpha (unknown origin) by HTRF assay
[27] = molecular target: Receptor-type tyrosine-protein kinase FLT3 (Homo sapiens) (UniProt P36888); assay: Inhibition of FLT3 in human MV4-11 cells assessed as inhibition of FLT3 phosphorylation measured after 90 mins by western blot analysis; assay type: cell-based; conditions: dose 20-100 nM
[28] = Acute toxicity in ICR mouse assessed as morphological changes in lungs at 300 mg/kg, ig and measured for 7 days by Hematoxylin-Eosin staining based analysis; assay type: organism-based; conditions: in vivo, po, 168 h, time 7 day
[29] = Selectivity ratio of IC50 for BMX (unknown origin) to IC50 for FLT3-ITD mutant (unknown origin)
[30] = Selectivity ratio of IC50 for TAK1 (unknown origin) to IC50 for FLT3-ITD mutant (unknown origin)
[31] = molecular target: T1, Serine/threonine-protein kinase Chk1 (Homo sapiens) (UniProt O14757); assay: Inhibition of CHK1 in human MV4-11 cells assessed as upregulation of p53 protein expression measured after 90 mins by western blot analysis; assay type: cell-based; conditions: dose 50-200 nM
T1 sequence (whole entry): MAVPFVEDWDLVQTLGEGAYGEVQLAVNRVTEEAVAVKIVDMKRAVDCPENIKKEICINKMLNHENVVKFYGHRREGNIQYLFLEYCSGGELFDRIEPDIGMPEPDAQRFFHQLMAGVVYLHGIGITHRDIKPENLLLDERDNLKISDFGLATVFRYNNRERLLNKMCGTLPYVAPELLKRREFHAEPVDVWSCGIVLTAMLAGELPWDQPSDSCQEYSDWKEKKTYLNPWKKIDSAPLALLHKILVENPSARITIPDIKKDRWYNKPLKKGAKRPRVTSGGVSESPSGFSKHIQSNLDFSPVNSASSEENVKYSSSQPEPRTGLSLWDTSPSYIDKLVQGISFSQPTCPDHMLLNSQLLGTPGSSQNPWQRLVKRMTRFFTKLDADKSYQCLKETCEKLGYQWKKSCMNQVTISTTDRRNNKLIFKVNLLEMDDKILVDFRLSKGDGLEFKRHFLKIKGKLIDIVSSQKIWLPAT

[32] = Selectivity ratio of IC50 for Aurora kinase A (unknown origin) to IC50 for FLT3-ITD mutant (unknown origin)
[33] = molecular target: T2, Serine/threonine-protein kinase Chk1 (Homo sapiens, UniProt O14757)
T2 sequence (O14757 whole entry): T1 sequence (whole entry)
Description: Inhibition of CHK1 (unknown origin) using peptide substrate S1 and ATP as substrate incubated for 1 hr by HTRF assay

[34] = tested on: BaF3; assay: Antiproliferative activity against mouse BaF3 cells harboring FLT3 D835F mutant assessed as reduction in cell viability incubated for 72 hrs by CellTiter 96 Aqueous One Solution Cell Proliferation Assay; assay type: functional, cell-based
[35] = Selectivity ratio of IC50 for PKA (unknown origin) to IC50 for FLT3-ITD mutant (unknown origin)
[36] = tested on: BaF3; assay: cells; conditions: Mus musculus, BaF3, 72 h
Description: Antiproliferative activity against mouse BaF3 cells harboring FLT3-ITD-N701K mutation assessed as reduction in cell viability incubated for 72 hrs by CellTiter 96 Aqueous One Solution Cell Proliferation Assay

Receptor-type tyrosine-protein kinase FLT3 (Homo sapiens), sequence (P36888 whole entry): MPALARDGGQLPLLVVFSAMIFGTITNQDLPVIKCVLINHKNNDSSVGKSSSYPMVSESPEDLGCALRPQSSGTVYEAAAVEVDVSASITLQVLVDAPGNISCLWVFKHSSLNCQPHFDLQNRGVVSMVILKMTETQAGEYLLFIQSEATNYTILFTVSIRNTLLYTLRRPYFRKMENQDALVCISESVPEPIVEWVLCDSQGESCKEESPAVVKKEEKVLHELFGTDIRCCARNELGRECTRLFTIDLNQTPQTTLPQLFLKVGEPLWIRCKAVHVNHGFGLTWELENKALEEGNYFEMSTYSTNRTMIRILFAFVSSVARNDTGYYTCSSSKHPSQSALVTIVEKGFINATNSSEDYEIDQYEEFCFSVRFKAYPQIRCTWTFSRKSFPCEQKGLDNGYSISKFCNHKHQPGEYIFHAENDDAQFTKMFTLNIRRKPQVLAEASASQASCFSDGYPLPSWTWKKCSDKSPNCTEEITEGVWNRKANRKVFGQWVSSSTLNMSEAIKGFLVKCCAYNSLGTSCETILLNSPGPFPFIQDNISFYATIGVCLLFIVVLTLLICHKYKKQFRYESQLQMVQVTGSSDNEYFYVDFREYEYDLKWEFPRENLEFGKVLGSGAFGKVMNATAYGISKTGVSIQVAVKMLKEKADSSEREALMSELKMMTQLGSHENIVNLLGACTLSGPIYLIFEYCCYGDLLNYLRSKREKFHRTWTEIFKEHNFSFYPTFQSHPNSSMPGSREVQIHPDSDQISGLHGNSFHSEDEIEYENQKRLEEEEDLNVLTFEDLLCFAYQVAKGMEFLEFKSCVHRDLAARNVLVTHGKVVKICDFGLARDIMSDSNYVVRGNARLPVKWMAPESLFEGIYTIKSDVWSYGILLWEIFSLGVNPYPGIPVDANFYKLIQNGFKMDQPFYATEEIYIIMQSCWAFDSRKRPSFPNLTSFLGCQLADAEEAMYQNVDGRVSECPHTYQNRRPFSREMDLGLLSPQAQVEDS
AMPK alpha2/beta1/gamma1, sequence (P54646 whole entry): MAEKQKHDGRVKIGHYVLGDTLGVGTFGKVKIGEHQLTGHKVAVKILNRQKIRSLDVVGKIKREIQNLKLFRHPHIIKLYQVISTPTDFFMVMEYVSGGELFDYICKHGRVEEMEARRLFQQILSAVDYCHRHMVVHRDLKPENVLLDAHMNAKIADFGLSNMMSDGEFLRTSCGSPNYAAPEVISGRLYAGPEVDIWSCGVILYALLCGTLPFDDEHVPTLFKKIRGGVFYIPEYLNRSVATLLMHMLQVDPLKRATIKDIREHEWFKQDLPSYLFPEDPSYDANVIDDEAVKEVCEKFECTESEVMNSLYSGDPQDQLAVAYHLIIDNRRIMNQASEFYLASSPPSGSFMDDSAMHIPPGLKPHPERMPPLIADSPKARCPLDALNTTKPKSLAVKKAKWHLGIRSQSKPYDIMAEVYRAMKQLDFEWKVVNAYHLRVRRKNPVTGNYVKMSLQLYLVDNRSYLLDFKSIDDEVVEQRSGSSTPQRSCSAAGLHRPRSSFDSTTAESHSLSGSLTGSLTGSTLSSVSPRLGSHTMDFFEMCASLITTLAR
AMPK alpha2/beta1/gamma1, sequence (P54619 whole entry): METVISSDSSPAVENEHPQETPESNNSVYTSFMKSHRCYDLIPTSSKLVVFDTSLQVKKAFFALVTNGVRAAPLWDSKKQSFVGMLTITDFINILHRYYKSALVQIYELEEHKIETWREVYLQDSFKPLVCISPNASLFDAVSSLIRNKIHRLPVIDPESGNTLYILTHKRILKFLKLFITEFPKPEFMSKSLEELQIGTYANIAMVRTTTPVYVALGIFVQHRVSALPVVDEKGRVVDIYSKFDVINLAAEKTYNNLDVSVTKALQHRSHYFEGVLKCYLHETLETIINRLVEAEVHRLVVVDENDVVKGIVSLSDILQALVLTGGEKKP
AMPK alpha2/beta1/gamma1, sequence (Q9Y478 whole entry): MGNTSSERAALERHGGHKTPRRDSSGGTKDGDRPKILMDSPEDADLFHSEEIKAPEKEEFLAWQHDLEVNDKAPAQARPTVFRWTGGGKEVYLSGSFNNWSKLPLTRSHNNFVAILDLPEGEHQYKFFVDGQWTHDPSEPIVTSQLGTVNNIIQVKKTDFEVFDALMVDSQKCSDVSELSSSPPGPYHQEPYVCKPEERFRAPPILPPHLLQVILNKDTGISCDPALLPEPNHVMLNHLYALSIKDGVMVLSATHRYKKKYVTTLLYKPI
Ribosomal protein S6 kinase beta-1, sequence (P23443 whole entry): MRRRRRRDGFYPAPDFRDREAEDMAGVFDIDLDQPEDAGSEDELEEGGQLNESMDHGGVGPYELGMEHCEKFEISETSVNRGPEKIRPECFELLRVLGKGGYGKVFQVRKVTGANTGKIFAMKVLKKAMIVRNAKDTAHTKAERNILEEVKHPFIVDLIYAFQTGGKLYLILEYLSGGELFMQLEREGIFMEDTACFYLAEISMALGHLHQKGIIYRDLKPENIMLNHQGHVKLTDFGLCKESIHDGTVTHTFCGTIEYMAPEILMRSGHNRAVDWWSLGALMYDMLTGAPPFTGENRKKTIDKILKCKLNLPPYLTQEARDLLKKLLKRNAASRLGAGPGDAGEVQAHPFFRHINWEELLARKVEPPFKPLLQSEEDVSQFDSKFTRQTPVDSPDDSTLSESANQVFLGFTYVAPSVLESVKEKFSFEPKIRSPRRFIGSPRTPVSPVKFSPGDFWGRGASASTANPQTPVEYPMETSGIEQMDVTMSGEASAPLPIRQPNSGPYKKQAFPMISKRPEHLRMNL
Casein kinase I isoform alpha, sequence (P48729 whole entry, canonical isoform): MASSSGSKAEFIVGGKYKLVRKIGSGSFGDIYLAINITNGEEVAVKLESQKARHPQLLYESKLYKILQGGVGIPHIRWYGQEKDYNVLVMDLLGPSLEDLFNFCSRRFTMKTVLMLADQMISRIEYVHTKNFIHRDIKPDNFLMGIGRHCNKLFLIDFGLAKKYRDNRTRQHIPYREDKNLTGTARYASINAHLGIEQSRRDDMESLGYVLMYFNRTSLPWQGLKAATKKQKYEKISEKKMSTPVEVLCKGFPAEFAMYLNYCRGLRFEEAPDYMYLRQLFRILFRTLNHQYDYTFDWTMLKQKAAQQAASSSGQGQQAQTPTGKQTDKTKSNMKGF
Voltage-gated inwardly rectifying potassium channel KCNH2, sequence (Q12809 whole entry): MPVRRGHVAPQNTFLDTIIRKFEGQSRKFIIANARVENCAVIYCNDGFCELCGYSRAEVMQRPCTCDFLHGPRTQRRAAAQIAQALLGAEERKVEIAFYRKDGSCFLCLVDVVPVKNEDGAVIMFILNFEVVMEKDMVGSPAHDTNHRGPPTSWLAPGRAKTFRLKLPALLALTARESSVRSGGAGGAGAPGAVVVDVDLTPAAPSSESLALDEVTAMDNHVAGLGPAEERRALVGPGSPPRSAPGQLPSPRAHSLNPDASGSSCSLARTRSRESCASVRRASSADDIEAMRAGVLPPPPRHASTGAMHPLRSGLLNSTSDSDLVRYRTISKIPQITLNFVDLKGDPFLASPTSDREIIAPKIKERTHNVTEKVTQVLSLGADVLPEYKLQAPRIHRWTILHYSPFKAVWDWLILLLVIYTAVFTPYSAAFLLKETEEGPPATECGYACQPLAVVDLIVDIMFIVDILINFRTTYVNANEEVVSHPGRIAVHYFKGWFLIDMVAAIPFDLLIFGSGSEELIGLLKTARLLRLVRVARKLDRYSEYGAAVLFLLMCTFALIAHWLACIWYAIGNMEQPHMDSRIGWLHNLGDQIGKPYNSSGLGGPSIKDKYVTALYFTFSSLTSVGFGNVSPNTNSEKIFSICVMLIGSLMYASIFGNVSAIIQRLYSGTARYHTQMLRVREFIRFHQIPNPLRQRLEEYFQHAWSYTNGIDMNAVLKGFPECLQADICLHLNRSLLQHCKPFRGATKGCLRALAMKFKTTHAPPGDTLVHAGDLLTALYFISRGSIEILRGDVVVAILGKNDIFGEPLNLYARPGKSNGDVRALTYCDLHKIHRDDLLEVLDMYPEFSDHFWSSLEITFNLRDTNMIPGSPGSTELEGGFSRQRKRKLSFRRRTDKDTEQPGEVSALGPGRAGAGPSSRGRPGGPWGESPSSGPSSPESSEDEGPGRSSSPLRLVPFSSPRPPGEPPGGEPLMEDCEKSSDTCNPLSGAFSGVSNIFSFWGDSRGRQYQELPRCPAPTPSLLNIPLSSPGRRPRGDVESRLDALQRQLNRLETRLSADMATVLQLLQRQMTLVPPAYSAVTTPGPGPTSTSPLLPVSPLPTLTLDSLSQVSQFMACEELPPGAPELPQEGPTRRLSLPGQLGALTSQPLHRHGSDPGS

CC(C)(O)CC(=O)N1CCc2cc(Nc3ncc(C(F)(F)F)c(N[C@H]4CC[C@@H](N)CC4)n3)ccc2C1
Activity [1]: Active | Ratio IC50 [2]: > 100 | IC50 [3]: 91.6 nM | inhibition [4]: 100% | Ratio IC50 [5]: > 100 | IC50 [6]: 58400 nM | Ratio IC50 [7]: > 100 | Ratio IC50 [8]: > 100 | MRT inf [9]: 5.73 h | Activity [10]: Non-Toxic | Ratio IC50 [11]: > 100 | Ratio IC50 [12]: > 100 | Activity [13]: Non-Toxic | IC50 [14]: 260 nM | Activity [15]: Non-Toxic | inhibition at 20 µM [16]: 2.37% | Ratio IC50 [17]: > 100 | Ratio IC50 [18]: > 100 | Ratio IC50 [19]: > 100 | Ratio IC50 [20]: > 100 | Tmax [21]: 2 h | half-life [22]: 5.6 h | Ratio IC50 [23]: > 100 | IC50 [24]: 18.4 nM | Activity [25]: Active | IC50 [26]: > 10000 nM | inhibition [27]: Dose-Dependent Effect | Activity [28]: Non-Toxic | Ratio IC50 [29]: > 100 | Ratio IC50 [30]: > 100 | inhibition [31]: Dose-Dependent Effect | Ratio IC50 [32]: > 100 | IC50 [33]: 9.8 nM | Activity [34]: Active | Ratio IC50 [35]: > 100 | IC50 [36]: 8.2 nM
